Data from patent US20060122180A1, “Therapeutic treatment” (priority 2002, published 2006).
Bridge positions count the residues as written; N and C are the ends. Ends that are not written are not given here.

Legend:
Format in all cases: cell-based, mouse
Settings in all cases: MC-3T3.E1/J1 cells, serum starved, stimulated for 3 minutes
[1] = system: phospho-p44/42 mitogen activated proteine kinase (MAPK) (Thr 202/204); experiment: Western blot of p44/42 MAPK phosphorylation in growth-factor-stimulated MC3T3.E1/J1 osteoblastic cells
Excerpt: (§1) The MC3T3. E1/J1 cell line was isolated from a parental cell line, MC3T3-E1 (available from Invitrogen), which had in turn been derived from newborn C57BL/6 mouse calvaria. The MC3T3 E1/J1 line is described as an osteoblastic line. Care is taken in culture not to use a medium with a pH greater than 7.5 or to allow the cells to become confluent, as this causes a de-differentiation to form a fibroblastic phenotype. This reversion to a fibroblastic phenotype is a common feature of osteoblastic cell cultures.
(§2) MC3T3.E1/J1 cells were routinely maintained in complete media (α-modified minimum essential medium eagle+10% foetal calf serum+1% glutamine+10% M1). MC3T3.E1/J1 cells were plated at 1.7×10^4 cells/well (24 well plates) in complete media and incubated at 37° C. in 5% CO2 for 48 hours. Cells were washed twice in phosphate buffered saline and re-incubated for approximately 17 hours in serum starvation media (α-modified minimum essential medium eagle+1% glutamine).
(§3) Cells were then stimulated with growth factor (ET-1 or EGF) for 3 minutes. All media was then removed and the cells lysed in 2× laemli buffer. Following electrophoresis and western blotting, membranes were probed with phospho-p44/42 mitogen activated proteine kinase (MAPK)^(Thr 202/204), phosphor-AKT^(Ser 473) and phospho-EGF Receptor^(tyr 1173) specific antibodies.

[2] = system: phosphor-AKT (Ser 473); experiment: Western blot of AKT phosphorylation in growth-factor-stimulated MC3T3.E1/J1 osteoblastic cells
Excerpt: as §1, §2, §3

[3] = system: phospho-EGF Receptor (tyr 1173); experiment: Western blot of EGF receptor phosphorylation in growth-factor-stimulated MC3T3.E1/J1 osteoblastic cells
Excerpt: as §1, §2, §3

Row | Substance | p44/42 MAPK phosphorylation [1] | AKT phosphorylation [2] | EGFR tyr1173 phosphorylation [3]
1 | endothelin-1 (CSCSSLMDKECVYFCHLDIIW; disulfide 1-15, 3-11; ends not checked; UniProt P05305 53-73, looked up) [ET-1, endogenous 21 amino acid peptide, endothelin isoform, used as growth factor stimulus] | stimulates | – | –
2 | epidermal growth factor [EGF, growth factor used as stimulus] | stimulates | stimulates | stimulates
